Laboratory results published in patent US8003801B2 (The Scripps Research Institute, priority 2005, dated 2011).
Several values for one entry are separate records, joined by “and”; a condition that tells them apart may be missing. Equal entries are not always repeated. Entries after “also recorded” stand apart in the source; their conditions may differ. Where two headings read alike, the source gives them in different places.

Legend:
[1] = test system: KB-8511, Taxol-resistant (Pgp-overexpression) KB cell line; conditions: human, 72 h
Protocol: (§1) In addition, further cytotoxicity studies were carried out using a pair of drug-sensitive parental human epidermoid carcinoma cells (KB-31) and its Taxol™-resistant Pgp-overexpressing subline (KB-5811).

[2] = test system: 1A9/A8, EpoA-resistant 1A9 cell line (β274 Thr→Ile); assay: 72 hour growth-inhibition (cytotoxicity) assay, 1A9/A8 cells; assay type: cell-based, human; conditions: for IC50: Homo sapiens, 1A9; for RAEpoB (relative activity), 1A9/A8: ratio of IC50 of EpoB to IC50 of the tested compound in the concurrent assay; for RRp (relative resistance), 1A9/A8: IC50 of 1A9/A8 divided by IC50 of the parental cell line
[3] = test system: KB-31 human epidermoid cancer cell line; assay: 72 hour growth-inhibition (cytotoxicity) assay, KB-31 cells; assay type: cell-based; conditions: for IC50: Homo sapiens
[4] = test system: 1A9/PTX10, Taxol-resistant 1A9 cell line (β270 Phe→Val); assay: 72 hour growth-inhibition (cytotoxicity) assay, 1A9/PTX10 cells; assay type: cell-based, human; conditions: for IC50: Homo sapiens, 1A9/ptx-10; for RAEpoB (relative activity), 1A9/PTX10: ratio of IC50 of EpoB to IC50 of the tested compound in the concurrent assay; for RRp (relative resistance), 1A9/PTX10: IC50 of 1A9/PTX10 divided by IC50 of the parental cell line 1A9
[5] = test system: 1A9 human ovarian cancer cell line; assay: 72 hour growth-inhibition (cytotoxicity) assay, 1A9 cells; assay type: cell-based; conditions: for IC50: Homo sapiens, 1A9; for RAEpoB (relative activity), 1A9: ratio of IC50 of EpoB to IC50 of the tested compound in the concurrent assay
[6] = test system: KB-8511, Taxol-resistant (Pgp-overexpression) KB cell line; assay: 72 hour growth-inhibition (cytotoxicity) assay, KB-8511 cells
Protocol: as §1

[7] = test system: A2780/AD10, drug-resistant clone of human ovarian carcinoma A2780 overexpressing P-glycoprotein; assay: 72 hour growth-inhibition (cytotoxicity) assay, A2780/AD10 cells; assay type: cell-based; conditions: for IC50: Homo sapiens, A2780, 72 hour growth inhibition, sulforhodamine-B staining, mean of 3-5 experiments ± SEM; for RRp (relative resistance), A2780/AD10: IC50 of A2780/AD10 divided by IC50 of the parental cell line; for potency enhancement over EpoB, A2780/AD10: PgP-overexpressing cell line
[8] = test system: drug-sensitive and drug-resistant human cancer cell lines; assay: Cytotoxicity assays across the panel of cell lines (summary in words); assay type: cell-based; conditions: summary of Tables 1A-1C
[9] = Table 2, tested epothilone, unit from Table 1A note a, read-out: IC50, 1A9/A8 (Table 2)
[10] = Table 2, tested epothilone, unit from Table 1A note a, read-out: IC50, 1A9/PTX10 (Table 2)
[11] = Table 2, tested epothilone, unit from Table 1A note a, read-out: IC50, 1A9 (Table 2)
[12] = read-out: KB-8511 IC50, 72 hour growth inhibition, methylene blue staining, mean of 3-5 experiments ± SEM
[13] = 72 hour growth inhibition, sulforhodamine-B staining, mean of 3-5 experiments ± SEM, read-out: 1A9/A8 IC50
[14] = KB 3-1, 72 h, read-out: KB-31 IC50
[15] = 72 hour growth inhibition, sulforhodamine-B staining, mean of 3-5 experiments ± SEM, read-out: 1A9/PTX10 IC50
[16] = 72 hour growth inhibition, sulforhodamine-B staining, mean of 3-5 independent experiments ± standard error of the mean, read-out: 1A9 IC50
[17] = read-out: IC50, KB-5811 (Table 2), Table 2, tested epothilone, cell line KB-5811, unit from Table 1A note a
[18] = KB 3-1, read-out: IC50, KB-31 (Table 2)

Compound: CSc1nc(/C=C(\C)[C@@H]2C[C@@H]3O[C@]3(C)CCC[C@H](C)[C@H](O)[C@@H](C)C(=O)C(C)(C)[C@@H](O)CC(=O)O2)cs1 [Compound 3, reference compound]
- IC50 [1]: 0.07 nM
- IC50 [2, 9]: 1.3 nM
- RAEpoB (relative activity), 1A9/A8 [2]: 5.0
- IC50 ([3]; KB 3-1, Table 2, tested epothilone, unit from Table 1A note a, read-out: IC50, KB-31 (Table 2)): 0.11 nM
- IC50 [4, 10]: 0.26 nM
- RAEpoB (relative activity), 1A9/PTX10 [4]: 14.2
- IC50 [5, 11]: 0.17 nM
- RAEpoB (relative activity), 1A9 [5]: 1.8

Compound: CC(=O)SCc1nc(/C=C(\C)[C@@H]2C[C@@H]3O[C@]3(C)CCC[C@H](C)[C@H](O)[C@@H](C)C(=O)C(C)(C)[C@@H](O)CC(=O)O2)cs1 [Compound 6]
- IC50 [6, 12]: 8.39 ± 1.37 nM
- IC50 [7]: 8.6 ± 3.3 nM
- RRp (relative resistance), A2780/AD10 [7]: 45.3
- cytotoxicity across the tested cell lines, in words [8]: less potent than EpoB, exhibited high potency against several of the tested cell lines
- IC50 [2, 13]: 49.8 ± 34.5 nM
- RRp (relative resistance), 1A9/A8 [2]: 9.2
- IC50 [3, 14]: 1.18 ± 0.12 nM
- IC50 [4, 15]: 28.2 ± 9.3 nM
- RRp (relative resistance), 1A9/PTX10 [4]: 5.2
- IC50 [5, 16]: 5.4 ± 1.1 nM

Compound: C/C(=C\c1nc2ccccc2s1)[C@@H]1C[C@@H]2O[C@]2(C)CCC[C@H](C)[C@H](O)[C@@H](C)C(=O)C(C)(C)[C@@H](O)CC(=O)O1 [Compound 7]
- IC50 [6, 17]: 0.08 nM
- IC50 [6, 12]: 0.08 ± 0.04 nM
- IC50 [7]: 707 nM
- RRp (relative resistance), A2780/AD10 [7]: 7.4
- cytotoxicity across the tested cell lines, in words [8]: excellent cytotoxicity across the range of cell lines, being more potent than EpoB
- IC50 [2, 13]: 0.7 ± 0.4 nM
- IC50 [2, 9]: 0.7 nM
- RRp (relative resistance), 1A9/A8 [2]: 3.7
- RAEpoB (relative activity), 1A9/A8 [2]: 14.3
- IC50 [3, 14]: 0.21 ± 0.07 nM
- IC50 [3, 18]: 0.21 nM
- IC50 [4, 15]: 2.6 ± 2.5 nM
- IC50 [4, 10]: 2.6 nM
- RRp (relative resistance), 1A9/PTX10 [4]: 13.7
- RAEpoB (relative activity), 1A9/PTX10 [4]: 3.0
- IC50 [5, 16]: 0.19 ± 0.1 nM
- IC50 [5, 11]: 0.19 nM
- RAEpoB (relative activity), 1A9 [5]: 5.2

Compound: C/C(=C\c1nccn1C)[C@@H]1C[C@@H]2O[C@]2(C)CCC[C@H](C)[C@H](O)[C@@H](C)C(=O)C(C)(C)[C@@H](O)CC(=O)O1 [Compound 8]
- IC50 [6, 12]: > 1000 nM
- IC50 [7]: 760 nM
- RRp (relative resistance), A2780/AD10 [7]: 1.4
- cytotoxicity across the tested cell lines, in words [8]: significantly lower activities
- IC50 [2, 13]: 242 nM
- RRp (relative resistance), 1A9/A8 [2]: 2.5
- IC50 [3, 14]: 69.9 ± 5.31 nM
- IC50 [4, 15]: > 750 nM
- IC50 [5, 16]: 95.5 ± 13.4 nM

Compound: C/C(=C\c1ncnn1C)[C@@H]1C[C@@H]2O[C@]2(C)CCC[C@H](C)[C@H](O)[C@@H](C)C(=O)C(C)(C)[C@@H](O)CC(=O)O1 [Compound 9]
- IC50 [6, 12]: > 1000 nM
- IC50 [7]: > 750 nM
- cytotoxicity across the tested cell lines, in words [8]: significantly lower activities
- IC50 [2, 13]: 627 nM
- RRp (relative resistance), 1A9/A8 [2]: 1.2
- IC50 [3, 14]: 382 ± 49.4 nM
- IC50 [4, 15]: > 750 nM
- IC50 [5, 16]: 540 nM

Compound: C/C(=C\c1ccn(C)n1)[C@@H]1C[C@@H]2O[C@]2(C)CCC[C@H](C)[C@H](O)[C@@H](C)C(=O)C(C)(C)[C@@H](O)CC(=O)O1 [Compound 14]
- IC50 [6, 17]: 0.25 nM
- IC50 [6, 12]: 0.25 ± 0.04 nM
- IC50 [7]: 25.5 ± 15.1 nM
- RRp (relative resistance), A2780/AD10 [7]: 4.7
- potency enhancement over EpoB, A2780/AD10 [7]: 20 fold
- cytotoxicity across the tested cell lines, in words [8]: more potent cytotoxicities than EpoB across the board
- IC50 [2, 13]: 0.8 ± 0.3 nM
- IC50 [2, 9]: 0.8 nM
- RRp (relative resistance), 1A9/A8 [2]: 1.6
- RAEpoB (relative activity), 1A9/A8 [2]: 12.5
- IC50 [3, 14]: 0.19 ± 0.01 nM
- IC50 [3, 18]: 0.19 nM
- IC50 [4, 15]: 1.7 ± 1.1 nM
- IC50 [4, 10]: 1.7 nM
- RRp (relative resistance), 1A9/PTX10 [4]: 3.4
- RAEpoB (relative activity), 1A9/PTX10 [4]: 4.6
- IC50 [5, 16]: 0.5 ± 0.3 nM
- IC50 [5, 11]: 0.5 nM
- RAEpoB (relative activity), 1A9 [5]: 2.0

Compound: C/C(=C\c1ccn(-c2ccccc2)n1)[C@@H]1C[C@@H]2O[C@]2(C)CCC[C@H](C)[C@H](O)[C@@H](C)C(=O)C(C)(C)[C@@H](O)CC(=O)O1 [Compound 15]
- IC50 [6, 12]: 1.62 ± 0.14 nM
- IC50 [7]: 6.4 nM
- RRp (relative resistance), A2780/AD10 [7]: 107
- cytotoxicity across the tested cell lines, in words [8]: somewhat less active
- IC50 [2, 13]: 4.8 ± 3.6 nM
- RRp (relative resistance), 1A9/A8 [2]: 0.9
- IC50 [3, 14]: 2.27 ± 0.16 nM
- IC50 [4, 15]: 25.8 ± 19.8 nM
- RRp (relative resistance), 1A9/PTX10 [4]: 4.7
- IC50 [5, 16]: 5.45 ± 3.7 nM

Compound: CSc1cc(/C=C(\C)[C@@H]2C[C@@H]3O[C@]3(C)CCC[C@H](C)[C@H](O)[C@@H](C)C(=O)C(C)(C)[C@@H](O)CC(=O)O2)nn1C [Compound 16]
- IC50 [6, 17]: 0.14 nM
- IC50 [6, 12]: 0.14 ± 0.01 nM
- IC50 [7]: 30.3 ± 17.7 nM
- RRp (relative resistance), A2780/AD10 [7]: 8.2
- potency enhancement over EpoB, A2780/AD10 [7]: 4 fold
- cytotoxicity across the tested cell lines, in words [8]: the most potent of all compounds tested; also recorded: outperformed EpoB in all five cancer cell lines tested
- potency (activity) increase as compared to EpoB, 1A9/A8 ([2]; EpoA-resistant cell line): 17 fold and 16.7 fold
- IC50 [2, 13]: 0.6 ± 0.5 nM
- IC50 [2, 9]: 0.6 nM
- RRp (relative resistance), 1A9/A8 [2]: 10.0
- RAEpoB (relative activity), 1A9/A8 [2]: 16.7
- IC50 [3, 14]: 0.09 ± 0.01 nM
- IC50 [3, 18]: 0.09 nM
- potency increase as compared to EpoB, KB cell lines ([3]; KB cell lines (KB-31 and KB-8511 together)): 3-5 fold
- IC50 [4, 15]: 0.1 nM
- IC50 [4, 10]: 0.1 nM
- RRp (relative resistance), 1A9/PTX10 [4]: 1.7
- potency increase as compared to EpoB, 1A9/PTX10 ([4]; Taxol-resistant cell line): 78 fold and 78.0 fold
- RAEpoB (relative activity), 1A9/PTX10 [4]: 78.0
- potency (activity) increase as compared to EpoB, 1A9 ([5]; 1A9 parental cell line): 17 fold and 16.5 fold
- IC50 [5, 16]: 0.06 ± 0.04 nM
- IC50 [5, 11]: 0.06 nM
- RAEpoB (relative activity), 1A9 [5]: 16.5

Compound: C/C(=C\C#N)[C@@H]1C[C@@H]2O[C@]2(C)CCC[C@H](C)[C@H](O)[C@@H](C)C(=O)C(C)(C)[C@@H](O)CC(=O)O1 [Compound 21]
- IC50 [6, 12]: > 1000 nM
- IC50 [7]: > 150 nM
- cytotoxicity across the tested cell lines, in words [8]: not found active; also recorded: devoid of any significant cytotoxicity against any of the cell lines tested
- IC50 [2, 13]: > 750 nM
- IC50 [3, 14]: 346 ± 10.5 nM
- IC50 [4, 15]: > 750 nM
- IC50 [5, 16]: > 750 nM
